Reference: patent US20160263131A1, “TREATMENT OF HEPATIC FIBROSIS USING AN INHIBITOR OF CBP/CATENIN” (priority 2013, published 2016)

Legend:
NASH mice [1] = test: Serum TG in NASH mice; type: in vivo, C57BL/6J mice; conditions: 10 mg/kg oral QD 9-12 wks, mean±SD, Disease-control 558±256, no significant difference
Procedure: (§1) Non-fasting blood glucose was measured in whole blood using Life Check (EIDIA, Japan). For serum biochemistry, blood was collected in polypropylene tubes without anticoagulant and kept at room temperature for 30 minutes, followed by at 4° C. for 1 hour. The blood samples were then centrifuged at 1,000×g for 15 minutes at 4° C. The supernatant was collected and stored at −80° C. until use. Serum ALT and TG levels were measured by FUJI DRI-CHEM 7000 (Fujifilm, Japan).

NASH mice [2] = test: Liver hydroxyproline content in NASH mice; type: in vivo, C57BL/6J mice; conditions: μg per mg total protein, 10 mg/kg oral QD 9-12 wks, mean±SD, Disease-control 1.09±0.42, no significant difference
Procedure: To quantify liver hydroxyproline content, frozen liver samples (35-45 mg) were processed by an alkaline-acid hydrolysis method as follows: the livers were defatted with 100% acetone, dried in the air, dissolved in 2N NaOH at 65° C., and autoclaved at 121° C. for 20 minutes. The lysed samples (400 μL) were acid-hydrolyzed with 400 μL of 6N HCl at 121° C. for 20 minutes, and neutralized with 400 μL of 4N NaOH containing 10 mg/mL activated carbon. AC buffer (2.2M acetic acid/0.48M citric acid, 400 μL) was added to the samples, followed by centrifugation to collect the supernatant. To construct a standard curve of hydroxyproline, serial dilutions of trans-4-hydroxy-Lproline (Sigma-Aldrich) were prepared starting at 16 μg/mL. The prepared samples and standards (each 400 μL) were mixed with 400 μL chloramine T solution (Wako Pure Chemical Industries, Japan) and incubated for 25 minutes at room temperature. The samples were then mixed with Ehrlich's solution (400 μL) and heated at 65° C. for 20 minutes to develop the color. After samples were cooled on ice and centrifuged to remove precipitates, the optical density of each supernatant was measured at 560 nm. The concentrations of hydroxyproline were calculated from the hydroxyproline standard curve. Protein concentrations of liver samples were determined using a BCA protein assay kit (Thermo Fisher Scientific, USA) and used to normalize the calculated hydroxyproline values. Hydroxyproline levels were expressed as μg per mg total protein.

NASH mice [3] = test: Sirius red staining, fibrosis area in liver of NASH mice; type: in vivo, C57BL/6J mice; conditions: NASH mice, 10 mg/kg oral QD 9-12 wks, 12 weeks of age, mean ± SD, n = 8; Disease-control 1.09 ± 0.27; significantly decreased; 10 mg/kg
Procedure: C57BL/6J mice (15-day pregnant female) were obtained from Charles River Laboratories Japan (Kanagawa, Japan). All animals used in this study were housed and cared for in accordance with the Japanese Pharmacological Society Guidelines for Animal Use. The animals were maintained in a SPF facility under controlled conditions of temperature (23±2° C.), humidity (45±10%), lighting (12-hour artificial light and dark cycles; light from 8:00 to 20:00) and air exchange. A high pressure (20±4 Pa) was maintained in the experimental room to prevent contamination of the facility. The animals were housed in polycarbonate cages KN-600 (Natsume Seisakusho, Japan) with a maximum of 4 mice per cage. Sterilized PULMASμ (Material Research Center, Japan) was used for bedding and replaced once a week. Sterilized solid HFD was provided ad libitum, being placed in the metal lid on top of the cage. Pure water was provided ad libitum from a water bottle equipped with a rubber stopper and a sipper tube. Water bottles were replaced once a week, cleaned and sterilized in autoclave and reused. Mice were identified by numbers engraved on earrings. Each cage was labeled with a specific identification code.

TIMP-1 = test: Quantitative RT-PCR of liver, TIMP-1 mRNA, NASH mice; type: in vivo, C57BL/6J mice; conditions: 10 mg/kg oral QD 9-12 wks, 12 weeks of age, mean ± SD, n = 8, Normal 1.00 ± 0.25, Disease-control 7.04 ± 2.13, tended to be down-regulated, 10 mg/kg
Procedure: (§2) Total RNA was extracted from liver samples using RNAiso (Takara Bio, Japan) according to the manufacturer's instructions. One μg of RNA was reverse-transcribed using a reaction mixture containing 4.4 mM MgCl2 (Roche, Switzerland), 40 U RNase inhibitor (Toyobo, Japan), 0.5 mM dNTP (Promega, USA), 6.28 μM random hexamer (Promega), 5× first strand buffer (Promega), 10 mM dithiothreitol (Invitrogen, USA) and 200 U MMLV-RT (Invitrogen) in a final volume of 20 μL. The reaction was carried out for 1 hour at 37° C., followed by 5 minutes at 99° C. Real-time PCR was performed using real-time PCR DICE and SYBR premix Taq (Takara Bio). To calculate the relative mRNA expression level, the expression of each gene was normalized to that of reference gene 36B4 (gene symbol: Rplp0). Information of PCR-primer sets and the plate layout was described in Table 1.

NASH mice [4] = test: Liver weight and liver-to-body weight ratio in NASH mice; type: in vivo, C57BL/6J mice; conditions: 10 mg/kg oral QD 9-12 wks, mean±SD
Procedure: (§3) The viability, clinical signs and behavior were monitored daily. Body weight was recorded daily before drug administration. […] The animals were sacrificed by exsanguination through direct cardiac puncture under ether anesthesia (Wako Pure Chemical Industries).

NASH mice [5] = test: HE staining and NAFLD Activity score in NASH mice; conditions: 10 mg/kg oral QD 9-12 wks, compared with Disease-control group
Procedure: NASH was induced in 40 male mice by a single subcutaneous injection of 200 μg streptozotocin (Sigma-Aldrich, USA) 2 days after birth and feeding with high fat diet (HFD, 57 kcal % fat, cat# HFD32, CLEA Japan, Japan) after 4 weeks of age. The mice were randomized into 5 groups of 8 mice at 9 weeks of age. Eight male littermates, fed with normal diet (cat# CE-2, CLEA Japan) without streptozotocin treatment, were used for the Normal group.
The test substance solution was filled in the osmotic pumps at concentrations determined based on the individual body weight at the start of treatment (day 0). Telmisartan was administered by oral route in a volume of 10 mL/kg body weight.
Telmisartan was administered once daily at a dose of 10 mg/kg body weight.
For HE staining, sections were cut from paraffin blocks of liver tissue prefixed in Bouin's solution and stained with Lillie-Mayer's Hematoxylin (Muto Pure Chemicals, Japan) and eosin solution (Wako Pure Chemical Industries).

α-SMA = test: Quantitative RT-PCR of liver, α-SMA mRNA, NASH mice; type: in vivo, C57BL/6J mice; conditions: 10 mg/kg oral QD 9-12 wks, 12 weeks of age, mean ± SD, n = 8, Normal 1.00 ± 0.60, Disease-control 2.43 ± 1.33, no significant difference, 10 mg/kg
Procedure: as §2

Collagen Type 3 = test: Quantitative RT-PCR of liver, Collagen Type 3 mRNA, NASH mice; type: in vivo, C57BL/6J mice; conditions: 10 mg/kg oral QD 9-12 wks, 12 weeks of age, mean ± SD, n = 8, Normal 1.00 ± 0.16, Disease-control 2.27 ± 0.35, tended to be down-regulated, 10 mg/kg
Procedure: as §2

NASH mice [6] = test: Serum ALT in NASH mice; type: in vivo, C57BL/6J mice; conditions: 10 mg/kg oral QD 9-12 wks, mean±SD, Disease-control 38±8, no significant difference
Procedure: as §1

NASH mice [7] = test: Whole blood glucose in NASH mice; type: in vivo, C57BL/6J mice; conditions: 10 mg/kg oral QD 9-12 wks, mean±SD, Disease-control 682±63, significantly increased
Procedure: as §1

NASH mice [8] = test: Liver TG content in NASH mice; type: in vivo, C57BL/6J mice; conditions: 10 mg/kg oral QD 9-12 wks, mean±SD, Disease-control 67.7±17.7, significant decrease
Procedure: Liver total lipid-extracts were obtained from right lobes by Folch's method (Folch J. et al, J. Biol. Chem. 1957; 226 (1): 497). The livers were homogenized in chloroform-methanol (2:1, v/v) and incubated overnight at room temperature. After washing with chloroform-methanol-water (8:4:3, v/v/v), the extracts were evaporated to dryness, and dissolved in isopropanol. Liver TG levels were measured by Triglyceride E-test (Wako Pure Chemical Industries). Extracts were diluted 2- to 4-fold in isopropanol when the TG contents exceed the limit of detection.

[9] = Body weight and general condition of NASH mice; conditions: mouse, in vivo
Procedure: as §3

CCCc1nc2c(C)cc(-c3nc4ccccc4n3C)cc2n1Cc1ccc(-c2ccccc2C(=O)O)cc1 [Telmisartan, reference compound]
Serum TG (NASH mice [1]): 843 ± 609 mg/dL
Liver hydroxyproline content (NASH mice [2]): 0.95 ± 0.25 µg/mg
Sirius red-positive area (fibrosis area) (NASH mice [3]): 0.50±0.10%
TIMP-1 mRNA expression level (relative, normalized to 36B4) (TIMP-1): 4.10±1.18
Liver-to-body weight ratio (NASH mice [4]; Disease-control 8.1±0.6, significant decrease): 6.9±0.7%
Mean liver weight (NASH mice [4]; Disease-control 1867±183, significant decrease): 1376 ± 80 mg
HE-stained liver sections: fat deposition, hepatocellular ballooning and inflammatory cell infiltration (NASH mice [5]): marked improvements
α-SMA mRNA expression level (relative, normalized to 36B4) (α-SMA): 1.83±0.36
Collagen Type 3 mRNA expression level (relative, normalized to 36B4) (Collagen Type 3): 1.73±0.33
Serum ALT (NASH mice [6]): 35±6 U/L
Whole blood glucose (non-fasting) (NASH mice [7]): 880 ± 39 mg/dL
Liver TG content (NASH mice [8]): 30.6 ± 5.6 mg/g
General condition [9]: No deterioration
